# Measured values from patent US20050009903A1, “CB2-selective cannabinoid analogues” (priority 2003, published 2005).
# Where “and” joins values, the source holds several entries; their conditions need not be identical. Equal entries are not always repeated. Where two headings read alike, the source gives them in different places.
# Legend:
# mouse vas deferens = conditions: cited from earlier work
# CB2 receptor [1] = target: T1, CB2 receptor (Homo sapiens, UniProt P34972); experiment: [35S]GTPγS binding in human CB2 receptor-expressing CHO cell membranes; type: biochemical; set-up: expressed in transfected cells; conditions: for efficacy in the [35S]GTPγS assay relative to CP-55,940: in words
# CB2 receptor [2] = target: T1, CB2 receptor; experiment: CB2 assay: displacement of [3H]CP-55,940 from cloned human CB2 receptor preparation (transfected HEK 293 cells); type: binding; set-up: expressed in transfected cells; conditions: for selectivity for the CB2 receptor: CB2 over CB1 affinity; for Ratio CB1/CB2 / Ratio CB17CB2: ratio of Ki values
# CB1 receptor [3] = target: T2, CB1 receptor (Rattus norvegicus, UniProt P20272); experiment: CB1 assay: displacement of [3H]CP-55,940 from rat brain membrane preparation; type: binding
# T2 construct: from tissue; host or cells: rat whole brain, P2 membranes
# CB2 receptor [4] = target: T1, CB2 receptor; set-up: expressed in transfected cells; conditions: cited from earlier work
# CB1 receptor [5] = target: T2, CB1 receptor; conditions: cited from earlier work
# CB1 receptor [6] = target: CB1 receptor (Homo sapiens, UniProt P21554); conditions: Gareau et al.; cited from earlier work
# CB2 receptor [7] = target: T1, CB2 receptor
# [8] = read-out: Emax relative to CP-55,940
# [9] = cloned human CB2, read-out: Ki at CB2 receptor
# [10] = previously reported by the applicants (literature refs), read-out: Ki at CB2 receptor
# [11] = Table 1, mean ± SEM, values marked ref 8, 19 or 20, read-out: Ki CB1
# [12] = previously reported by the applicants (literature refs), read-out: Ki at CB1 receptor
# [13] = Ki at CB2 receptor, cloned human CB2
# [14] = Table 3, mean ± SEM, 3-(alkoxy-1-naphthoyl)indoles, the same values as Ki in nM, read-out: CB2 (receptor affinity)
# [15] = rat brain membranes, read-out: Ki at CB1 receptor
# [16] = Table 2, mean ± SEM, 3-(alkyl-1-naphthoyl)indoles, read-out: Ki CB2
# [17] = Table 2, mean ± SEM, 3-(alkyl-1-naphthoyl)indoles, read-out: Ki CB1
# T1 sequence (P34972 whole entry): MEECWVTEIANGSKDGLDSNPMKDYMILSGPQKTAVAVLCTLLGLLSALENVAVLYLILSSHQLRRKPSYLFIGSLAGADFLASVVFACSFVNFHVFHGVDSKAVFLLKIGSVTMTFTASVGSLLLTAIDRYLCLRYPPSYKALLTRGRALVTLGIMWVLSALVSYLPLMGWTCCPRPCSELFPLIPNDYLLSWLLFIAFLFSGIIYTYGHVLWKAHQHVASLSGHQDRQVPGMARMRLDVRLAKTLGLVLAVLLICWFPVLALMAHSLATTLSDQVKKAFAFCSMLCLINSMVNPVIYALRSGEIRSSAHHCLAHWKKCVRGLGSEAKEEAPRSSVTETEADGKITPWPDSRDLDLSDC
# T2 sequence (P20272 whole entry): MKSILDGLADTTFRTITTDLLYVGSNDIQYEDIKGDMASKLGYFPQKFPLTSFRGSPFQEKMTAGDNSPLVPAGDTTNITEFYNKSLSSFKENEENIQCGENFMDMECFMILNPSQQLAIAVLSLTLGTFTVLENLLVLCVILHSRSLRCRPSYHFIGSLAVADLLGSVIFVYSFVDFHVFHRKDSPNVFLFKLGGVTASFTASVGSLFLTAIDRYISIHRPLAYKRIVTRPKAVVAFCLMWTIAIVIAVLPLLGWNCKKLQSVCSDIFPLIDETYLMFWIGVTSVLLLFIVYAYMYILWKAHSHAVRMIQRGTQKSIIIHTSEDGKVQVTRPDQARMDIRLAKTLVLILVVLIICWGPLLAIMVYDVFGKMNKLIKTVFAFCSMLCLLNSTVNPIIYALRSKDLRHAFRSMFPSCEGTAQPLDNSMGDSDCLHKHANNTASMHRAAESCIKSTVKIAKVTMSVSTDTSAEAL
# Sequence of CB1 receptor (Homo sapiens, UniProt P21554) (P21554 whole entry): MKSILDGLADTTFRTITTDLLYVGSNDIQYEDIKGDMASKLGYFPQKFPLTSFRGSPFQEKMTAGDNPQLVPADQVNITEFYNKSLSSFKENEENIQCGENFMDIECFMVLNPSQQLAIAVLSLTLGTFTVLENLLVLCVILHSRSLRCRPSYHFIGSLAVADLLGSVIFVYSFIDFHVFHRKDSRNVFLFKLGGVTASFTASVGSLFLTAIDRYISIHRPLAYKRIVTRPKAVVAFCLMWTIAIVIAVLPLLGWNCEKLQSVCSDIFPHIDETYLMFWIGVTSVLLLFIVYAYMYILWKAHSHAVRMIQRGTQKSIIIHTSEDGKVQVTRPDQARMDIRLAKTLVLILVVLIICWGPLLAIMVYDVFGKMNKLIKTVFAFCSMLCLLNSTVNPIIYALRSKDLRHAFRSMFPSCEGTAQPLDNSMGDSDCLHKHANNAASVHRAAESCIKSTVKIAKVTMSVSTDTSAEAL
molecule,measurement,setting,value
COc1ccc(C(=O)c2c(C)n(CCN3CCOCC3)c3ccccc23)cc1 [pravadoline],contractions of electrically stimulated mouse vas deferens,mouse vas deferens,inhibited contractions
"CCCn1c(C)c(C(=O)c2cccc3cc(OC)ccc23)c2ccccc21 [JWH-151, 2-Methyl-1-propyl-3-(6-methoxy-1-naphthoyl)indole]",EC50,CB2 receptor [1],12 ± 2.9 nM
same,"efficacy in the [35S]GTPγS assay relative to CP-55,940",CB2 receptor [1],highly efficacious
same,Emax,CB2 receptor [1]; read-out: Emax (% CP-55940),108 ± 13%
same,Emax,CB2 receptor [1]; [8],108 ± 13%
same,selectivity for the CB2 receptor,CB2 receptor [2],> 333 fold
same,Ki,CB2 receptor [2]; [9],30 ± 1 nM
same,Ki,CB1 receptor [3],> 10000 nM
same,Ki,"CB1 receptor [3]; read-out: CB1 (receptor affinity), Table 3, mean ± SEM, 3-(alkoxy-1-naphthoyl)indoles, the same values as Ki in nM",> 10000 nM
"CCCCCCC(C)(C)c1ccc2c(c1)OC(C)(C)C1CC=C(CO)CC21 (stereo not shown) [Compound 1, 1-Deoxy-11-hydroxy-3-(1′,1′-dimethylheptyl)-Δ^8-THC]",Ki,"CB2 receptor [4]; Table 1, mean ± SEM, values marked ref 30, 19 or 20, read-out: Ki CB2",0.03 ± 0.02 nM
same,Ki,CB2 receptor [4]; [10],0.032 nM
same,Ki,CB1 receptor [5]; [11],1.2 ± 0.1 nM
same,Ki,CB1 receptor [5]; [12],1.2 nM
same,Ratio CB1/CB2,CB2 receptor [2]; Table 1,40
"CCCCCCC(C)(C)c1cc(OC)c2c(c1)OC(C)(C)[C@@H]1CC=C(C)C[C@@H]21 [Compound 4, 3-(1′,1′-Dimethylheptyl)-1-methoxy-Δ^8-THC, reference compound]",Ki at CB1,CB1 receptor [6],virtually no affinity
same,Ki,CB2 receptor [7]; read-out: Ki at CB2; Gareau et al.; cited from earlier work,~20 nM
same,Ki,"CB2 receptor [4]; read-out: Ki at CB2 receptor, previously reported by the applicants (literature refs)",65 ± 8 nM
same,Ki,"CB1 receptor [5]; read-out: Ki at CB1 receptor, previously reported by the applicants (literature refs)",924 ± 104 nM
same,Ki,CB2 receptor [2]; [13],57 nM
same,Ratio CB1/CB2,CB2 receptor [2]; Table 1,12 and 14
same,Ki,CB1 receptor [3],713 nM
"CCCn1c(C)c(C(=O)c2cccc3ccccc23)c2ccccc21 [JWH-015, 2-Methyl-1-propyl-3-(1-naphthoyl)indole]",Emax,CB2 receptor [1]; read-out: Emax (% CP-55940),65.7 ± 6.4%
same,Emax,CB2 receptor [1]; [8],65.7 ± 6.4%
"CCCCCn1cc(C(=O)c2c(OC)ccc3ccccc23)c2ccccc21 [JWH-267, 1-Pentyl-3-(2-methoxy-1-naphthoyl)indole]",EC50,CB2 receptor [1],4.9 ± 0.8 nM
same,"efficacy in the [35S]GTPγS assay relative to CP-55,940",CB2 receptor [1],partial agonists
same,Emax,CB2 receptor [1]; read-out: Emax (% CP-55940),67.3 ± 2.9%
same,selectivity for the CB2 receptor,CB2 receptor [2],53 fold
same,Ki,CB2 receptor [2]; [13],7.35 nM
same,Ki,CB2 receptor [2]; [14],7.2 ± 0.14 nM
same,Ki,CB1 receptor [3]; [15],381 ± 16 nM
"CCCn1cc(C(=O)c2c(OC)ccc3ccccc23)c2ccccc21 [JWH-265, 1-Propyl-3-(2-methoxy-1-naphthoyl)indole]",Ki,CB2 receptor [2]; [9],80 ± 13 nM
same,melting point,,117 to 119 °C
same,Ki,"CB1 receptor [3]; Table 3, mean ± SEM, 3-(alkoxy-1-naphthoyl)indoles, the same values as Ki in nM, read-out: CB1 (receptor affinity)",3790 ± 323 nM
"C=C1CCC2C(C1)c1c(OC)cc(C(C)(C)CCCCCC)cc1OC2(C)C (stereo not shown) [Compound 5, 1-methoxy-66 ^9(11)-THC-DMH]",Ki at CB1,CB1 receptor [6],virtually no affinity
same,Ki,CB2 receptor [7]; Gareau et al.; read-out: Ki at CB2; cited from earlier work,~20 nM
"CCCn1cc(C(=O)c2ccc(C)c3ccccc23)c2ccccc21 [JWH-120, 1-Propyl-3-(4-methyl-1-naphthoyl)indole]",EC50,CB2 receptor [1],5.1 ± 1.6 nM
same,"efficacy in the [35S]GTPγS assay relative to CP-55,940",CB2 receptor [1],partial agonists
same,Emax,CB2 receptor [1]; read-out: Emax (% CP-55940),78.1 ± 10.7%
same,Emax,CB2 receptor [1]; [8],78.1 ± 10.7%
same,selectivity for the CB2 receptor,CB2 receptor [2],173 fold
same,Ratio CB17CB2,CB2 receptor [2]; Table 2,173
same,Ki,CB2 receptor [2]; [9],6.1 ± 7 nM
same,Ki,CB1 receptor [3]; [15],1050 ± 31 nM
"CCCCCn1c(C)c(C(=O)c2cccc3ccccc23)c2ccccc21 [JWH-007, 1-pentyl-2-methyl-3-(1-naphthoyl)indole]",Ki,"CB2 receptor [4]; read-out: Ki CB2, Table 2, mean ± SEM, values marked with literature refs",2 ± 2.6 nM
same,Ratio CB17CB2,CB2 receptor [2]; Table 2,3.3
"CCCCCC(C)(C)c1cc(OC)c2c(c1)OC(C)(C)C1CC=C(CO)CC21 (stereo not shown) [Compound 11e, 1-Methoxy-3-(1′,1′-dimethylhexyl)-11-hydroxy-Δ^8-THC]",Ratio CB1/CB2,CB2 receptor [2]; Table 1,11
same,Ki,CB2 receptor [2]; [9],1.4 nM and 1.2 nM
same,Ki,CB1 receptor [3]; [15],15 nM and 14 nM
"CCCCc1ccc(C(=O)c2c(C)n(CCC)c3ccccc23)c2ccccc12 [JWH-241, 2-Methyl-1-propyl-3-(4-butyl-1-naphthoyl)indole]",Ratio CB17CB2,CB2 receptor [2]; Table 2,3.0
same,Ki,CB2 receptor [2]; [9],49 ± 7 nM
same,Ki,CB1 receptor [3]; [15],147 ± 20 nM
"CCC(C)(C)c1cc(OC)c2c(c1)OC(C)(C)C1CC=C(C)CC21 (stereo not shown) [Compound 6b, 1-Methoxy-3-(1′,1′-dimethylpropyl)-Δ^8-THC]",Ki,"CB2 receptor [2]; Table 1, mean ± SEM, cloned human CB2, [3H]CP 55,940, read-out: Ki CB2",1400 ± 66 nM
same,Ratio CB1/CB2,CB2 receptor [2]; Table 1,7.1
same,Ki,"CB1 receptor [3]; Table 1, mean ± SEM, rat brain membranes, [3H]CP 55,940, read-out: Ki CB1",> 10000 nM
"CCCCC(C)(C)c1cc(OC)c2c(c1)OC(C)(C)[C@@H]1CC=C(C)C[C@@H]21 [Compound 6d, 1-Methoxy-3-(1′,1′-dimethylpentyl)-Δ^8-THC]",Ki,"CB2 receptor [2]; Ki CB2, Table 1, mean ± SEM, cloned human CB2, [3H]CP 55,940",43 ± 3 nM
same,Ratio CB1/CB2,CB2 receptor [2]; Table 1,93
same,Ki,CB1 receptor [3],4000 ± 282 nM
"1-Methoxy-3-(1′,1′-dimethylhexyl)-Δ^8-THC [Compound 6e]",EC50,"CB2 receptor [1]; Table 4, mean ± SEM, human CB2 CHO cells, read-out: EC50 GTPγS binding",4.6 ± 2 nM
same,Emax (% CP-55940),"CB2 receptor [1]; Table 4, mean ± SEM, per cent relative to 3 μM CP-55,940",75.7 ± 8.3 % CP-55940
"CCCn1c(C)c(C(=O)c2ccc(CC)c3ccccc23)c2ccccc21 [JWH-211, 2-Methyl-1-propyl-3-(4-ethyl-1-naphthoyl)indole]",Ratio CB17CB2,CB2 receptor [2]; Table 2,5.8
same,Ki,CB2 receptor [2]; [9],12 ± 0.8 nM
same,Ki,CB1 receptor [3]; [15],70 ± 0.8 nM
"CCCn1cc(C(=O)c2ccc(CC)c3ccccc23)c2ccccc21 [JWH-212, 1-Propyl-3-(4-ethyl-1-naphthoyl)indole]",Ki,CB2 receptor [2]; [16],10 ± 1.2 nM
same,Ratio CB17CB2,CB2 receptor [2]; Table 2,3.3
same,Ki,CB1 receptor [3]; [17],33 ± 0.9 nM
"CCCCCn1cc(C(=O)c2ccc(CCC)c3ccccc23)c2ccccc21 [JWH-182, 1-Pentyl-3-(4-propyl-1-naphthoyl)indole]",Ki,CB2 receptor [2]; [16],1.1 ± 0.1 nM
same,Ratio CB17CB2,CB2 receptor [2]; Table 2,0.6
same,Ki,CB1 receptor [3]; [17],0.65 ± 0.03 nM
"CCCn1c(C)c(C(=O)c2cccc3ccc(OC)cc23)c2ccccc21 [JWH-160, 2-Methyl-1-propyl-3-(7-methoxy-1-naphthoyl)indole]",Ki,CB2 receptor [2]; [14],441 ± 110 nM
same,Ki,CB1 receptor [3]; [15],1570 ± 201 nM
"CCCCCn1cc(C(=O)c2ccc(CC)c3ccccc23)c2ccccc21 [JWH-210, 1-Pentyl-3-(4-ethyl-1-naphthoyl)indole]",Ki,CB2 receptor [2]; [16],0.69 ± 0.01 nM
same,Ratio CB17CB2,CB2 receptor [2]; Table 2,0.67
same,Ki,CB1 receptor [3]; [15],0.46 ± 0.03 nM
"CCCn1c(C)c(C(=O)c2cccc3ccc(CC)cc23)c2ccccc21 [JWH-236, 2-Methyl-1-propyl-3-(7-ethyl-1-naphthoyl) indole]",Ratio CB17CB2,CB2 receptor [2]; Table 2,5.6
same,Ki,CB2 receptor [2]; [9],240 ± 63 nM
same,Ki,CB1 receptor [3]; [15],1350 ± 204 nM
"CCCCCn1c(C)c(C(=O)c2ccc(CC)c3ccccc23)c2ccccc21 [JWH-213, 2-Methyl-1-pentyl-3-(4-ethyl-1-naphthoyl)indole]",Ki,CB2 receptor [2]; [16],0.42 ± 0.05 nM
same,Ratio CB17CB2,CB2 receptor [2]; Table 2,3.6
same,Ki,CB1 receptor [3]; [17],1.5 ± 0.2 nM
"COc1cc(C(C)(C)C)cc2c1[C@@H]1CC(CO)=CC[C@H]1C(C)(C)O2 [Compound 11a, 1-Methoxy-3-(1′,1′-dimethylethyl)-11-hydroxy-Δ^8-THC]",Ki,CB2 receptor [2]; [13],333 ± 104 nM
same,Ratio CB1/CB2,CB2 receptor [2]; Table 1,5.6
same,Ki,CB1 receptor [3],1860 ± 148 nM
"CCCCCCC(C)(C)c1ccc2c(c1)OC(C)(C)C1CC=C(C)CC21 (stereo not shown) [Compound 2, 1-Deoxy-3-(1′,1′-dimethylheptyl)-Δ^8-THC]",Ki,CB2 receptor [4]; [10],2.9 nM
same,Ki,CB1 receptor [5]; [11],22.8 ± 7.3 nM
same,Ki,CB1 receptor [5]; [12],23 nM
same,Ratio CB1/CB2,CB2 receptor [2]; Table 1,7.9
"CCCc1ccc(C(=O)c2cn(CCC)c3ccccc23)c2ccccc12 [JWH-180, 1-Propyl-3-(4-propyl-1-naphthoyl)indole]",Ki,CB2 receptor [2]; [16],9.6 ± 2 nM
same,Ratio CB17CB2,CB2 receptor [2]; Table 2,2.7
same,Ki,CB1 receptor [3]; [17],26 ± 2 nM
"CCCn1c(C)c(C(=O)c2ccc(OCC)c3ccccc23)c2ccccc21 [JWH-261, 2-Methyl-1-propyl-3-(4-ethoxy-1-naphthoyl)indole]",Ki,CB2 receptor [2]; [9],221 ± 14 nM
same,Ki,CB1 receptor [3]; [15],767 ± 105 nM
